Earlier results as cited in US12569487B2, “Treatment of hidradenitis with jak inhibitors” (PFIZER INC., priority 2019, dated 2026).
Like-named read-outs stand apart in the source and are kept apart here.

Tested on: patients with moderate to severe HS
Conditions: for Clinical response rate (hidradenitis suppurativa clinical response, HiSCR): adalimumab weekly

## adalimumab
PIONEER I, Week 12, placebo 26.0%, P=0.003, oral antibiotics stopped at least 28 days before baseline
  Clinical response rate (hidradenitis suppurativa clinical response, HiSCR): 41.8%
PIONEER II, Week 12, placebo 27.6%, P<0.001, stable tetracycline-class antibiotics allowed
  Clinical response rate (hidradenitis suppurativa clinical response, HiSCR): 58.9%
Week 12, in PIONEER II only
  Rank-ordered secondary outcomes (lesions, pain, modified Sartorius score) versus placebo: significantly greater improvement
Summary of the PIONEER trials
  Patients with moderate to severe HS who did not respond to treatment: ~40%
